In ChEMBL document CHEMBL3046932, “Synthesis, 5-HT1A and 5-HT2A receptor affinity and QSAR study of 1-benzhydryl-piperazine derivatives with xanthine moiety at N4” (Med Chem Res, 2012):

Columns and labels:
[1] = biological target: T1, 5-hydroxytryptamine receptor 1A (Rattus norvegicus, UniProt P19327); assay: Displacement of [3H]8-OH-DPAT from 5-HT1A receptor in Rattus norvegicus (rat) hippocampus
T1 sequence (P19327 whole entry): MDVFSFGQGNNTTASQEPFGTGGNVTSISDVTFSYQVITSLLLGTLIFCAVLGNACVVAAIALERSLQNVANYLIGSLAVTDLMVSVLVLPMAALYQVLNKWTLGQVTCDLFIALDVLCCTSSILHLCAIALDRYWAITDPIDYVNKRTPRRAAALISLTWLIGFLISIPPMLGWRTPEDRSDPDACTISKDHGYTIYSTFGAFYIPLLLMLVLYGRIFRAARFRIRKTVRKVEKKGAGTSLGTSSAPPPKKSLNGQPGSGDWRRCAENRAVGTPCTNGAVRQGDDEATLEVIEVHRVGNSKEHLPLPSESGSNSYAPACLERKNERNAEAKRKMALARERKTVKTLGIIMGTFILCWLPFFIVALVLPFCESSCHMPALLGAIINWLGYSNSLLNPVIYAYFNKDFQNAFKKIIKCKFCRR

[2] = biological target: 5-hydroxytryptamine receptor 2A (Rattus norvegicus, UniProt P14842); assay: Displacement of [3H]Ketanserin from 5-HT2A receptor in rat cortex
Sequence of 5-hydroxytryptamine receptor 2A (Rattus norvegicus, UniProt P14842) (P14842 whole entry): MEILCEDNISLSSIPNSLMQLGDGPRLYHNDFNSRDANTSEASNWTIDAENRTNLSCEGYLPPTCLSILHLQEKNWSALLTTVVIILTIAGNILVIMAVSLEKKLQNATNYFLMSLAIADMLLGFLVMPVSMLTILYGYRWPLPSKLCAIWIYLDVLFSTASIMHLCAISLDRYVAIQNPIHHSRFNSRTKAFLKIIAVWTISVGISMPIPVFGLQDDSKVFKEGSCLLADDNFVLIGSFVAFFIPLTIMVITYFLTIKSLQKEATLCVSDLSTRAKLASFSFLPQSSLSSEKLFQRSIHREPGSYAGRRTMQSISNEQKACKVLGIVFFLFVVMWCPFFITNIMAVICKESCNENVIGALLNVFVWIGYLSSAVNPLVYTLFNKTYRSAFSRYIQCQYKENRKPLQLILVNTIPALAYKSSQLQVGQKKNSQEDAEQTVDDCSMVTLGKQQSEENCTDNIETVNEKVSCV

[3] = biological target: T2, 5-hydroxytryptamine receptor 2A (Homo sapiens, UniProt P28223); assay: Binding affinity to 5-HT2A (unknown origin)
T2 sequence (P28223 whole entry): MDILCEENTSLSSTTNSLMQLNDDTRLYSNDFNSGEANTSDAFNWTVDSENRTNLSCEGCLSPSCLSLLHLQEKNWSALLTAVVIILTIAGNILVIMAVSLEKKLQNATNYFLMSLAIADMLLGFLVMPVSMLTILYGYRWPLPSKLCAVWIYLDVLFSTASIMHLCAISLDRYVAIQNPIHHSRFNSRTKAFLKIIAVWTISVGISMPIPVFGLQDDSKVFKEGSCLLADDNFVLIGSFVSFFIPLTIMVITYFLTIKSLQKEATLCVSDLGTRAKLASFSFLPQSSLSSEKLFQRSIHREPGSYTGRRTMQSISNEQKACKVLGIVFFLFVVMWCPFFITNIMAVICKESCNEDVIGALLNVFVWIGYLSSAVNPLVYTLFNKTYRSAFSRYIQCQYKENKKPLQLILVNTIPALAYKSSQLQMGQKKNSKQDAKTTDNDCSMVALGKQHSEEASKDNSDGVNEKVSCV

[4] = biological target: T3, 5-hydroxytryptamine receptor 1A (Homo sapiens, UniProt P08908); assay: Binding affinity to 5-HT1A (unknown origin)
T3 sequence (P08908 whole entry): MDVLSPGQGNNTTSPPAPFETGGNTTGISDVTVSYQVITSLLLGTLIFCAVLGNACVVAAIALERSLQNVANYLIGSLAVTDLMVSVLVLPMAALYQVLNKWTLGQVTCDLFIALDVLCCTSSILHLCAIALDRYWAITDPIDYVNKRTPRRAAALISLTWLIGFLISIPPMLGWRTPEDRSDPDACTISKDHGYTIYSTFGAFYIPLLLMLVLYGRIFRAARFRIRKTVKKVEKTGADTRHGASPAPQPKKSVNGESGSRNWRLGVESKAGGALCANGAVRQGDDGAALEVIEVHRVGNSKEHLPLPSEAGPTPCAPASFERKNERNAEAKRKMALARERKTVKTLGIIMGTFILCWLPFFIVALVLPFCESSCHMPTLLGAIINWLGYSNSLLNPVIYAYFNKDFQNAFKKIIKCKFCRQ

[5] = biological target: T2, 5-hydroxytryptamine receptor 2A; assay: Displacement of [3H]Ketanserin from 5-HT2A receptor (unknown origin)
[6] = Selectivity index, ratio of Ki for rat 5-HT1A to Ki for 5-HT2A (unknown origin)

| Compound | Ki ([1]; read-out: pKi (converted)) [nM] | Ki [2] [nM] | Ki [3] [nM] | Ki [4] [nM] | also measured |
| --- | --- | --- | --- | --- | --- |
| Cn1c(=O)c2c(nc(NCCCN3CCN(c4cccc(Cl)c4)CC3)n2CCCc2ccccc2)n(C)c1=O | 10 | 346 |  |  |  |
| Cn1c(=O)c2c(nc3n2CCCN3CCCN2CCN(c3ccccc3)CC2)n(C)c1=O |  |  | 422 | 16 |  |
| Cn1c(=O)c2c(nc3n2CCCN3CCCN2CCN(c3ncccn3)CC2)n(C)c1=O |  |  | 8150 | 36 |  |
| Cn1c(=O)c2c(nc3n2CCCN3CCCN2CCN(c3cccc(Cl)c3)CC2)n(C)c1=O |  |  | 126 | 25.7 |  |
| COc1ccccc1N1CCN(CCCn2c(=O)ccn3c4c(=O)n(C)c(=O)n(C)c4nc23)CC1 |  |  | 3880 | 10.4 |  |
| Cn1c(=O)c2c(nc3n2CCCCN3CCCN2CCN(c3cccc(Cl)c3)CC2)n(C)c1=O |  |  | 330 | 26.7 |  |
| COc1ccccc1N1CCN(CCCNc2nc3c(c(=O)n(C)c(=O)n3C)n2Cc2ccccc2)CC1 | 48 | 550 |  |  |  |
| Cn1c(=O)c2c(nc3n2CCC(=O)N3CCCN2CCN(c3ncccn3)CC2)n(C)c1=O |  |  | 28000 | 42 |  |
| Cn1c(=O)c2c(nc3n(CCCN4CCN(c5cccc(Cl)c5)CC4)c(=O)ccn23)n(C)c1=O |  |  | 1080 | 32.8 |  |
| Cn1c(=O)c2c(nc(N3CCN(C(c4ccccc4)c4ccccc4)CC3)n2C)n(C)c1=O |  |  |  |  | Ki ([1]; read-out: Ki): 10800 nM; Ki [5]: 22500 nM; Ratio Ki [6]: 0.5 |
| Cn1c(=O)c2c(nc3n2CCCC(=O)N3CCCN2CCN(c3cccc(Cl)c3)CC2)n(C)c1=O |  |  | 359 | 60.3 |  |
| Cn1c(=O)c2c(nc(NCCCN3CCN(c4ccccc4)CC3)n2CCCc2ccccc2)n(C)c1=O | 50 | 445 |  |  |  |
| Cn1c(=O)c2c(nc(NCCCN3CCN(c4cccc(Cl)c4)CC3)n2CCc2ccccc2)n(C)c1=O | 210 | 119 |  |  |  |
| Cn1c(=O)c2c(nc3n(CCCCN4CCN(c5ccccc5)CC4)c(=O)ccn23)n(C)c1=O | 21.5 | 1990 |  |  |  |
| Cn1c(=O)c2c(nc(NCCCN3CCN(c4ccccc4)CC3)n2C)n(C)c1=O |  |  | 197 | 385 |  |
| COc1ccccc1N1CCN(CCCN2C(=O)CCCn3c2nc2c3c(=O)n(C)c(=O)n2C)CC1 |  |  | 5010 | 168 |  |

| Compound | Ki ([1]; read-out: pKi (converted)) [nM] | Ki [2] [nM] | Ki [3] [nM] | Ki [4] [nM] | also measured |
| --- | --- | --- | --- | --- | --- |
| Cn1c(=O)c2c(nc3n2CCCC(=O)N3CCCN2CCN(c3ncccn3)CC2)n(C)c1=O |  |  | 38800 | 474 |  |
| COc1ccccc1N1CCN(CCCN2CCCn3c2nc2c3c(=O)n(C)c(=O)n2C)CC1 |  |  | 486 | 2.8 |  |
| COc1ccccc1N1CCN(CCCN2CCCCn3c2nc2c3c(=O)n(C)c(=O)n2C)CC1 |  |  | 562 | 17.2 |  |
| CCCCn1c(NCCCN2CCN(c3ccccc3)CC2)nc2c1c(=O)n(C)c(=O)n2C |  |  | 614 | 100 |  |
| CCOC(=O)Cn1c(NCCCN2CCN(c3ccccc3)CC2)nc2c1c(=O)n(C)c(=O)n2C | 220 | 449 | 1010 | 592 |  |
| Cn1c(=O)c2c(nc3n2CCC(=O)N3CCCN2CCN(c3cccc(Cl)c3)CC2)n(C)c1=O |  |  | 182 | 42.9 |  |
| COc1ccccc1N1CCN(CCCCn2c(=O)ccn3c4c(=O)n(C)c(=O)n(C)c4nc23)CC1 | 0.5 | 1070 |  |  |  |
| CC(c1ccccc1)n1c(NCCCN2CCN(c3ccccc3)CC2)nc2c1c(=O)n(C)c(=O)n2C (centres undefined) | 1010 | 115 |  |  |  |
| COc1ccccc1N1CCN(CCCN2C(=O)CCn3c2nc2c3c(=O)n(C)c(=O)n2C)CC1 |  |  | 4220 | 21.6 |  |
| Cn1c(=O)c2c(nc3n2CCCN3CCCCN2CCN(c3ccccc3)CC2)n(C)c1=O |  |  | 243 | 2.1 |  |
| Cn1cnc2c1c(=O)n(CCCN1CCN(C(c3ccccc3)c3ccccc3)CC1)c(=O)n2C |  |  |  |  | Ki ([1]; read-out: Ki): 1990 nM; Ki [5]: 58.6 nM; Ratio Ki [6]: 33.9 |
| Cn1c(=O)c2c(nc(NCCCN3CCN(C(c4ccccc4)c4ccccc4)CC3)n2C)n(C)c1=O |  |  |  |  | Ki ([1]; read-out: Ki): 1570 nM; Ki [5]: 308 nM; Ratio Ki [6]: 5.1 |
| Cn1c(=O)c2c(nc3n2CCCCN3CCCN2CCN(c3ccccc3)CC2)n(C)c1=O |  |  | 258 | 31 |  |
| COc1ccccc1N1CCN(CCCNc2nc3c(c(=O)n(C)c(=O)n3C)n2CCCc2ccccc2)CC1 | 8 | 304 |  |  |  |
| Cn1c(=O)c2c(nc3n(CCCN4CCN(c5ccccc5)CC4)c(=O)ccn23)n(C)c1=O |  |  | 4680 | 25 |  |
| Cn1c(=O)c2c(nc3n(CCCCN4CCN(c5cccc(Cl)c5)CC4)c(=O)ccn23)n(C)c1=O | 8.79 | 153 |  |  |  |
